Experimental data published in ChEMBL document CHEMBL3351806, “Development of a novel, multifunctional, membrane-interactive pyridinium salt with potent anticancer activity” (Bioorg Med Chem Lett, 2014).
The source made the active and inactive calls. The calls are words filed in the database; no cut-off is given here.

Legend:
U-251 [1] = assay: Induction of membrane disruption in human U251MG cells assessed as dye uptake at 200 to 500 uM by trypan blue exclusion assay; type: functional, cell-based
[2] = Antiproliferative activity against human IN1472 cells after 72 hrs by SRB method; type: functional, cell-based; settings: IN1472, 72 h
IN1760 [3] = assay: Induction of membrane disruption in human IN1760 cells assessed as cell structure disruption at 1000 uM by trypan blue exclusion assay; type: functional, cell-based
[4] = Antiproliferative activity against human IN1760 cells after 72 hrs by SRB method; type: functional, cell-based; settings: IN1760, 72 h
[5] = Induction of membrane disruption using DMPC lipid vesicles at 187.5 uM; type: functional
[6] = Antiproliferative activity against human U251MG cells after 72 hrs by SRB method; type: functional, cell-based; settings: U-251, 72 h
[7] = Induction of membrane disruption using DMPG lipid vesicles at 187.5 uM; type: functional
U-251 [8] = assay: Induction of membrane disruption in human U251MG cells assessed as cell structure disruption at 1000 uM by trypan blue exclusion assay; type: functional, cell-based
IN1472 [9] = assay: Induction of membrane disruption in human IN1472 cells assessed as cell structure disruption at 1000 uM by trypan blue exclusion assay; type: functional, cell-based
[10] = Induction of membrane disruption using DMPE lipid vesicles at 187.5 uM; type: functional
[11] = Induction of membrane disruption using DMPS lipid vesicles at 187.5 uM; type: functional
IN1472 [12] = assay: Induction of membrane disruption in human IN1472 cells assessed as dye uptake at 200 to 500 uM by trypan blue exclusion assay; type: functional, cell-based
[13] = Antiproliferative activity against human IN1528 cells after 72 hrs by SRB method; type: functional, cell-based; settings: IN1528, 72 h
IN1528 [14] = assay: Induction of membrane disruption in human IN1528 cells assessed as cell structure disruption at 1000 uM by trypan blue exclusion assay; type: functional, cell-based
IN1760 [15] = assay: Induction of membrane disruption in human IN1760 cells assessed as dye uptake at 200 to 500 uM by trypan blue exclusion assay; type: functional, cell-based
IN1528 [16] = assay: Induction of membrane disruption in human IN1528 cells assessed as dye uptake at 200 to 500 uM by trypan blue exclusion assay; type: functional, cell-based

SMILES | Activity (U-251 [1]) | EC50 [2] [µM] | Activity (IN1760 [3]) | EC50 [4] [µM] | Activity [5] [%] | EC50 [6] [µM] | Activity [7] [%] | Activity (U-251 [8]) | Activity (IN1472 [9]) | Activity [10] [%] | Activity [11] [%] | Activity (IN1472 [12]) | EC50 [13] [µM] | Activity (IN1528 [14]) | Activity (IN1760 [15]) | Activity (IN1528 [16])
CCCCCCCC[n+]1ccc(C(=O)N(C)c2cc[n+](CCCCCCCC)cc2)cc1 | Active | 78 | Active | 19.5 | 38.8 | 312 | 44.2 | Active | Active | 77.7 | 64.6 | Active | 9.8 | Active | Active | Active
CN(C(=O)c1ccncc1)c1ccncc1 | – | – | – | – | 34.1 | – | 30 | – | – | 34.9 | 23.3 | – | – | – | – | –
CCCCCCCCc1ccc(C(=O)N(C)c2ccc(CCCCCCCC)cc2)cc1 | – | – | – | – | 27.3 | – | 16.6 | – | – | 34.7 | 27.2 | – | – | – | – | –
